This note sets out measurements from publication PMC12735921, “Evaluation of Antiproliferative Activity and Molecular Modeling Studies of Some Novel Benzimidazolone-Bridged Hybrid Compounds” (Pharmaceuticals, 2025).

The structures appear in SMILES notation. Several values for one entry are separate records, joined by “and”; a condition that tells them apart may be missing. Equal values may be shown once. Marks after values point to notes of the source that are not given here.

In experiment [1] the test system is A549 cells. In words: MTT cell viability assay, A549. The class given is cell-based, human. Particulars: for IC50: Homo sapiens, A549, MTT, 48 h, mean ± SD, n = 3; for A549 Selectivity Index (SI): SI = IC50 (HEK 293)/IC50 (A549). On the procedure:
(§1) Cell viability assay was performed on the human lung cancer (A549) (ATCC CCL-185), human breast cancer (MCF-7) (ATCC-HTB-22), cervical cancer (HeLa) (ATCC-CCL-2), and human embryonic kidney 293 (HEK293) (ATCC-CRL-1573) cell lines, which were purchased from Deutsche Sammlung von Mikroorganismen und Zellkulturen (DSMZ, Braunschweig, Germany). The cells were maintained in Dulbecco’s modified Eagle’s medium (DMEM), supplemented with 10% fetal bovine serum (FBS), 2 mM L-glutamine, 100 U/mL penicillin, and 100 mg/L streptomycin (Biochrom AG, Berlin, Germany) at 37 °C in a humidified atmosphere of 5% CO2.
(§2) The cytotoxic effect was determined by the MTT (3-(4,5-dimethyl-2-thiazolyl)-2,5-diphenyl-2H-tetrazolium bromide) cell viability assay. Cells were seeded at an initial concentration of 1 × 10^5 cells/mL in 96-well microplates. Cells were then treated with different concentrations (0.5, 5, 10, 25, 50, 100 and 200 µM) of the novel synthesized compounds for 48 h. After the incubation period, the formed formazan crystals were dissolved in dimethyl sulfoxide (DMSO), and the optical density (OD) of the compounds was measured at 570 nm using a spectrophotometer (BMG Labtech, Ortenberg, Germany). Cytotoxicity was expressed as an increase in the mean percentage of cytotoxicity relative to the unexposed control ± standard deviation (SD). […] Control values were set at 0% cytotoxicity. IC50 was calculated by fitting the data to a sigmoidal curve using a four-parameter logistic model and was presented as an average of three independent measurements. […] Doxorubicin was used as a positive control. Each sample was tested in triplicate.
(§3) To evaluate the selectivity of the tested compound(s) toward cancer cells over normal cells, the Selectivity Index (SI) was calculated using the following formula:SI = IC50 (normal cells)/IC50 (cancer cells)
(§4) An SI value greater than 2 was considered to indicate selective cytotoxicity, while values below 2 were interpreted as non-selective. Higher SI values reflect greater therapeutic potential due to reduced toxicity toward normal cells.

Experiment [2] deals with MCF-7 cells. The experiment is described as follows: MTT cell viability assay, MCF-7. The class given is cell-based, human. The conditions noted are these: for IC50: Homo sapiens, MCF7, MTT, 48 h, mean ± SD, n = 3; for MCF-7 Selectivity Index (SI): SI = IC50 (HEK 293)/IC50 (MCF-7). As for the experimental part: as §1, §2, §3, §4
Background: Tetrazolium assays rely on reduction of a dye to a coloured formazan, in cell work by metabolically active cells.

For experiment [3], the system named is HeLa cells. The experiment is described as follows: MTT cell viability assay, HeLa. Particulars: for IC50: Homo sapiens, HeLa, MTT, 48 h, mean ± SD, n = 3; for HeLa Selectivity Index (SI): SI = IC50 (HEK 293)/IC50 (HeLa). The experiment is classed as cell-based, human. As for the experimental part:
as §1, §2, §3, §4

The subject of experiment [4] is HEK 293 cells. The experiment is described as follows: MTT cell viability assay, non-cancerous HEK 293. The conditions noted are these: Homo sapiens, HEK293, 48 h, mean ± SD, n = 3. The experiment is classed as cell-based, human. On the procedure: as §1
The cytotoxic effect was determined by the MTT (3-(4,5-dimethyl-2-thiazolyl)-2,5-diphenyl-2H-tetrazolium bromide) cell viability assay. Cells were seeded at an initial concentration of 1 × 10^5 cells/mL in 96-well microplates. Cells were then treated with different concentrations (0.5, 5, 10, 25, 50, 100 and 200 µM) of the novel synthesized compounds for 48 h. After the incubation period, the formed formazan crystals were dissolved in dimethyl sulfoxide (DMSO), and the optical density (OD) of the compounds was measured at 570 nm using a spectrophotometer (BMG Labtech, Ortenberg, Germany). Cytotoxicity was expressed as an increase in the mean percentage of cytotoxicity relative to the unexposed control ± standard deviation (SD). […] Control values were set at 0% cytotoxicity. IC50 was calculated by fitting the data to a sigmoidal curve using a four-parameter logistic model and was presented as an average of three independent measurements. […] Each sample was tested in triplicate.

Experiment [5] deals with A549 cells. In words: LDH leakage assay, A549. The experiment is classed as cell-based, human. Particulars: A549, IC50 concentration of compound, 48 h; H2O2 positive control; mean ± SD, n = 3. On the procedure:
(§5) One hundred microliters of culture medium was transferred to a new 96-well plate. One hundred microliters of LDH reaction solution was added to each well, and absorbance was measured at 490 nm using an ELISA plate reader (BMG Labtech, Ortenberg, Germany) after 30 min.
For orientation: Release of lactate dehydrogenase indicates damage to the cell membrane.

Experiment [6] deals with MCF-7 cells. In words: LDH leakage assay, MCF-7. The experiment is classed as cell-based, human. The conditions noted are these: MCF-7, IC50 concentration of compound, 48 h; H2O2 positive control; mean ± SD, n = 3. As for the experimental part: as §5
Experiment [7] relates to A549 cells. In words: Total oxidative status (TOS), A549. The experiment is classed as cell-based, human. Particulars: A549, IC50 concentration of compound, 48 h; H2O2 250 µM positive control; mean ± SD, n = 3. On the procedure:
(§6) TOS were evaluated using a commercially available kit (Rel Assay Diagnostics®, Gaziantep, Turkey) according to the manufacturer’s instructions. […] The TOS assay quantifies oxidizing agents based on their ability to convert an iron (II) ion chelator complex to iron (III) ions. The results were calibrated against hydrogen peroxide (H2O2, 250 µM) as a positive control for 48 h and expressed as µmol H2O2 equivalents per liter. The analysis was performed in three independent biological replicates (n = 3).

In experiment [8] the test system is MCF-7 cells. In words: Total oxidative status (TOS), MCF-7. The experiment is classed as cell-based, human. The conditions noted are these: MCF-7, IC50 concentration of compound, 48 h; H2O2 250 µM positive control; mean ± SD, n = 3. On the procedure:
as §6

Experiment [9] deals with A549 cells. In words: Intracellular GSH/GSSG ratio, A549. The experiment is classed as cell-based, human. The conditions noted are these: A549, IC50 concentration of compound, 48 h; H2O2 positive control; mean ± SD, n = 3. On the procedure:
(§7) Intracellular reduced (GSH) and oxidized (GSSG) glutathione levels were measured using the GSH/GSSG Ratio Detection Assay Kit (Cayman Chemical, Ann Arbor, MI, USA, Cat. No: 703002) according to the manufacturer’s protocol. […] After treatment, cells were washed with cold PBS and lysed with MES buffer provided in the kit.
(§8) To prevent oxidation of GSH to GSSG during processing, samples were deproteinized using the supplied metaphosphoric acid solution and neutralized accordingly. Total glutathione and GSSG levels were measured separately by adding the appropriate buffers and reagents to the wells of a 96-well plate, followed by the addition of DTNB recycling reagent and glutathione reductase. Absorbance was read at 405 nm using a microplate reader (BMG Labtech, Germany). The amount of GSH was calculated by subtracting 2 × GSSG from the total glutathione, and the GSH/GSSG ratio was used to assess intracellular redox status.

In experiment [10] the test system is MCF-7 cells. In words: Intracellular GSH/GSSG ratio, MCF-7. The experiment is classed as cell-based, human. Particulars: MCF-7, IC50 concentration of compound, 48 h; H2O2 positive control; mean ± SD, n = 3. On the procedure:
as §7, §8

For experiment [11], the system named is A549 cells. The experiment is described as follows: Cell cycle analysis (PI staining, flow cytometry), A549. The experiment is classed as cell-based, human. Particulars: A549, IC50 concentration, 48 h, mean ± SEM, n = 3. As for the experimental part:
(§9) Cell cycle distribution was assessed by propidium iodide (PI) staining and flow cytometry. HeLa, MCF-7, and A549 cells were seeded in 6-well plates at a density of 1 × 10^5 cells per well and allowed to attach overnight. […] Following exposure, both adherent and floating cells were collected, washed twice with cold phosphate-buffered saline (PBS, pH 7.4), and fixed overnight in 70% cold ethanol at 4 °C. After fixation, the cells were centrifuged and resuspended in 500 µL of PI/RNase staining solution containing 50 µg/mL PI and 100 µg/mL RNase A (Sigma-Aldrich®, St. Louis, MO, USA), followed by incubation in the dark for 30 min at 37 °C. The stained samples were analyzed using a Muse™ Cell Analyzer (Merck, Millipore, Germany) equipped with a 488 nm excitation laser and a 617 nm emission filter. A minimum of 10,000 events per sample were acquired after exclusion of debris and doublets via FSC-A vs. FSC-H gating. The DNA content histograms were generated automatically, and cell populations were expressed as percentages of G0/G1, S, and G2/M phases using the Muse™ Cell Cycle Analysis Software 1.5.0.0. All assays were conducted in triplicate biological repeats (n = 3), and results were reported as mean ± SEM.
In general terms: Flow cytometry measures light scatter and fluorescence of single cells or particles in a stream.

The subject of experiment [12] is MCF-7 cells. In words: Cell cycle analysis (PI staining, flow cytometry), MCF-7. Particulars: MCF-7, IC50 concentration, 48 h, mean ± SEM, n = 3. The experiment is classed as cell-based, human. As for the experimental part:
as §9

Experiment [13] deals with HeLa cells. The experiment is described as follows: LDH leakage assay, HeLa. The experiment is classed as cell-based, human. The conditions noted are these: IC50 concentration of compound, 48 h, H2O2 positive control, mean ± SD, n = 3. On the procedure: as §5
Experiment [14] deals with HeLa cells. The experiment is described as follows: Total oxidative status (TOS), HeLa. The experiment is classed as cell-based, human. The conditions noted are these: IC50 concentration of compound, 48 h, H2O2 250 µM positive control, mean ± SD, n = 3. As for the experimental part:
as §6

Experiment [15] concerns A549, MCF-7, and HeLa cells. In words: MTT cell viability assay, ranges stated across the cancer cell lines. The class given is cell-based. The conditions noted are these: Homo sapiens, range over the three cancer cell lines, 48 h. On the procedure:
as §1
The cytotoxic effect was determined by the MTT (3-(4,5-dimethyl-2-thiazolyl)-2,5-diphenyl-2H-tetrazolium bromide) cell viability assay. Cells were seeded at an initial concentration of 1 × 10^5 cells/mL in 96-well microplates. […] After the incubation period, the formed formazan crystals were dissolved in dimethyl sulfoxide (DMSO), and the optical density (OD) of the compounds was measured at 570 nm using a spectrophotometer (BMG Labtech, Ortenberg, Germany). Cytotoxicity was expressed as an increase in the mean percentage of cytotoxicity relative to the unexposed control ± standard deviation (SD). […] IC50 was calculated by fitting the data to a sigmoidal curve using a four-parameter logistic model and was presented as an average of three independent measurements. […]

One may read the IC50 as the concentration that gives 50% inhibition. Lower therefore signals greater potency in that assay. As to `O=C(Cn1c(=O)n(CC(=O)NNC(=O)c2cc3cc(Br)ccc3oc2=O)c2cc(Cl)c(Cl)cc21)NNC(=O)c1cc2cc(Br)ccc2oc1=O` [Compound 12c, N′,N′′′ -(2,2′-(5,6-dichloro-2-oxo-1H-benzo[d]imidazole-1,3(2H)-diyl)bis(acetyl))bis(6-bromo-2-oxo-2H-chromene-3-carbohydrazide)], the IC50 in [1] is 10.2 ± 0.58 µM; in experiment [2], 9.7 ± 0.56 µM; in [3], 11.5 ± 0.66 µM; in [4], 21.5 ± 1.24 µM. For the same molecule, the “A549 Selectivity Index (SI)” value in experiment [1] was determined as 2.01. Besides, in [2], the “MCF-7 Selectivity Index (SI)” value is on record as 2.21. Besides, the “HeLa Selectivity Index (SI)” value in experiment [3] came to 1.86. The LDH in experiment [5] is 30.4 ± 2.6 µU/mL and 30.4 ± 2.6 ^a,b µU/mL; in [6], 28.8 ± 2.2 µU/mL and 28.8 ± 2.2 ^a,b µU/mL. Further, the TOS in experiment [7] was 8.5 ± 0.7 µmol H2O2 eq/L and 8.5 ± 0.7 ^a,b µmol H2O2 eq/L; in experiment [8] it was 8.3 ± 0.6 µmol H2O2 eq/L and 8.3 ± 0.6 ^a,b µmol H2O2 eq/L. The GSH/GSSG in experiment [9] was 9.5 ± 0.8 nmol/mg Protein and 9.5 ± 0.8 ^a,b nmol/mg Protein; in [10] it was 10.2 ± 1.0 nmol/mg Protein and 10.2 ± 1.0 ^a,b nmol/mg Protein. The entries for the “cells in G0/G1 phase” value in experiment [11] and in experiment [12] were 68.4 ± 2.4% and 72.2 ± 2.3%, respectively. The results for the “cells in G2/M phase” value in experiment [11] and in experiment [12] were 16.4 ± 1.5% and 12.5 ± 1.1%, respectively. The results for the “cells in S phase” value in experiment [11] and in [12] were 15.2 ± 1.3% and 15.3 ± 1.2%, respectively.
In the case of `OO` [Compound H2O2, hydrogen peroxide, reference compound], the results for the LDH in experiment [13], in [5] and in [6] were 41.5 ± 3.2 ^a µU/mL, 40.7 ± 3.0 ^a µU/mL and 39.5 ± 2.7 ^a µU/mL, respectively. Moreover, the TOS in [14] is 10.4 ± 0.7 ^a µmol H2O2 eq/L; in experiment [7] it was 10.5 ± 0.8 ^a µmol H2O2 eq/L; in experiment [8] it was 10.1 ± 0.7 ^a µmol H2O2 eq/L. Also, the GSH/GSSG was 7.1 ± 0.9 ^a nmol/mg Protein in experiment [9] and 7.4 ± 0.9 ^a nmol/mg Protein in experiment [10].
As to `O=c1n(CN2CCN(c3ccc(Cl)cc3)CC2)c2cc(Cl)c(Cl)cc2n1CN1CCN(c2ccc(Cl)cc2)CC1` [Compound 9, 5,6-Dichloro-1,3-bis((4-(4-chlorophenyl)piperazin-1-yl)methyl)-1H-benzo[d]imidazol-2(3H)-one], the IC50 in experiment [1] is 9.6 ± 0.55 µM; in experiment [2], 11.2 ± 0.46 µM; in experiment [3], 8.5 ± 0.49 µM; in experiment [4], 15.2 ± 0.87 µM; in experiment [15], 8.5 to 11.2 µM. Besides, the “A549 Selectivity Index (SI)” value in [1] is 1.58. In experiment [2], the “MCF-7 Selectivity Index (SI)” value is on record as 1.35. In addition, the “HeLa Selectivity Index (SI)” value in experiment [3] is on record as 1.78.
